Source: patent US20060239988A1, “Neuronal regeneration and compound administration methods” (priority 2003, published 2006)

Experiments:
[1] = tested on: importin-beta; details: CHX 10 micrograms/ml, ActD 5 micrograms/ml
Method: Electrophoretic gel autoradiography: In order to evaluate whether importin-beta is synthesized in axons, sciatic nerve segments were incubated for 6 hours in Met/Cys-deficient DMEM medium (Gibco-BRL) containing 1 mCi/ml of [35]S-Met/Cys (Amersham Bioscience), with or without 10 micrograms/ml of the translation inhibitor cycloheximide (CHX, Sigma) or 5 micrograms/ml of the transcription inhibitor actinomycin D (ActD, Sigma), followed by extrusion of the axoplasm into nuclear transport buffer. The extruded axoplasm was immunoprecipitated with anti importin-beta antibody, and the immunoprecipitate was resolved via 10% SDS-PAGE. Following electrophoresis, the gel was dried and analyzed via autoradiography using FujiFilm BAS2500.

[2] = tested on: vimentin and peripherin; details: calpeptin 100 micromolar applied to the nerve by injection
[3] = target: pERK with vimentin (Homo sapiens, UniProt P28482); details: EGTA 100 millimolar
pERK with vimentin, sequence (P28482 2-360): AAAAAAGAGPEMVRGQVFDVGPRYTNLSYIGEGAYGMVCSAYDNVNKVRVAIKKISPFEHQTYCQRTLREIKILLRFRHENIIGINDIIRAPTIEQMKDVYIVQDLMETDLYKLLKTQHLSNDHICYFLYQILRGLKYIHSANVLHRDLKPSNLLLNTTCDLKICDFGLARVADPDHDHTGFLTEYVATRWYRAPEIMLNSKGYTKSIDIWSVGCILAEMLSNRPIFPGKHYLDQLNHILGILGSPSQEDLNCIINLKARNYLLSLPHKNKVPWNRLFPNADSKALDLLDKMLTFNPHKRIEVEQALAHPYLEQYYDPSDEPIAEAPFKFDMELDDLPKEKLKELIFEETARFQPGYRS
Method: (§1) Pull-down assays and co-immunoprecipitations: Sciatic nerve axoplasm (500 micrograms) was pre-cleared for 1 hour with 80% protein G-Sepharose (Amersham Bioscience). Following overnight incubation with primary antibody, complexes were incubated on protein-G beads for 2 hours, washed extensively and eluted by boiling in SDS-PAGE sample buffer before loading on gels for Western blot analysis. For co-immunoprecipitation in the presence of competitors, 2 micromolar NLS (SEQ ID NO: 2) or reverse-NLS (SEQ ID NO: 3) peptide was added to the axoplasm for overnight incubation at 4 degrees centigrade. For direct pull-downs, GST-pERK (0.5 microgram) or importin-beta (1 microgram) was equilibrated in PBS or NTB and added to 500 microgram aliquots of axoplasm from different post-lesion times. […] All pull-downs were washed twice with 0.2 molar NaCl in PBS or NTB and twice again with PBS or NTB before elution in SDS-PAGE sample buffer for loading on gels.

[4] = target: pERK2 (Homo sapiens, UniProt P28482); details: in-vitro, increased at calcium up to 1 millimolar
pERK2, sequence (P28482 whole entry): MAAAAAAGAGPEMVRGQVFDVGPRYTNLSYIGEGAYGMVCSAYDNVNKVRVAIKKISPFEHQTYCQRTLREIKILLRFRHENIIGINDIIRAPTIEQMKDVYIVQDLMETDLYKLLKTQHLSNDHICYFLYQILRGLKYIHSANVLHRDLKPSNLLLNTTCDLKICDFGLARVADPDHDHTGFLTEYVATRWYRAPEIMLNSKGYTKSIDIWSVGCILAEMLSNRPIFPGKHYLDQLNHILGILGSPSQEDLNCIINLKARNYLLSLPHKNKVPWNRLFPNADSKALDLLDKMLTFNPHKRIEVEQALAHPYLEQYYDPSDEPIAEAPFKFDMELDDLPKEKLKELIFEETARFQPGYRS
pERK2, sequence (P02544 whole entry partner): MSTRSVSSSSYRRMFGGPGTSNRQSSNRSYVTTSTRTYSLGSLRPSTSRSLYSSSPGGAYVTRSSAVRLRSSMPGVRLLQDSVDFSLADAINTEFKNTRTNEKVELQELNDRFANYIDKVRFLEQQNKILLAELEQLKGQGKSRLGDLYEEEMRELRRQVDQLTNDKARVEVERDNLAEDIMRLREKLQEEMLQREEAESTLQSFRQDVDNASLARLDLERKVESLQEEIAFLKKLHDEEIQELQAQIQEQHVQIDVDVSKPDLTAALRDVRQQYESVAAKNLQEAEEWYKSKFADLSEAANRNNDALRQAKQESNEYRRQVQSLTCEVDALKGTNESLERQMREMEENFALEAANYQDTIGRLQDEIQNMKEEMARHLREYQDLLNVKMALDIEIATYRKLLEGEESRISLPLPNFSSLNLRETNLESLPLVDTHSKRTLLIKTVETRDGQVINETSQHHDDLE
Method: as §1

[5] = target: pERK (Homo sapiens, UniProt P28482)
pERK, sequence (P28482 whole entry): as the sequence (P28482 whole entry) above
pERK, sequence (Q14974 whole entry partner): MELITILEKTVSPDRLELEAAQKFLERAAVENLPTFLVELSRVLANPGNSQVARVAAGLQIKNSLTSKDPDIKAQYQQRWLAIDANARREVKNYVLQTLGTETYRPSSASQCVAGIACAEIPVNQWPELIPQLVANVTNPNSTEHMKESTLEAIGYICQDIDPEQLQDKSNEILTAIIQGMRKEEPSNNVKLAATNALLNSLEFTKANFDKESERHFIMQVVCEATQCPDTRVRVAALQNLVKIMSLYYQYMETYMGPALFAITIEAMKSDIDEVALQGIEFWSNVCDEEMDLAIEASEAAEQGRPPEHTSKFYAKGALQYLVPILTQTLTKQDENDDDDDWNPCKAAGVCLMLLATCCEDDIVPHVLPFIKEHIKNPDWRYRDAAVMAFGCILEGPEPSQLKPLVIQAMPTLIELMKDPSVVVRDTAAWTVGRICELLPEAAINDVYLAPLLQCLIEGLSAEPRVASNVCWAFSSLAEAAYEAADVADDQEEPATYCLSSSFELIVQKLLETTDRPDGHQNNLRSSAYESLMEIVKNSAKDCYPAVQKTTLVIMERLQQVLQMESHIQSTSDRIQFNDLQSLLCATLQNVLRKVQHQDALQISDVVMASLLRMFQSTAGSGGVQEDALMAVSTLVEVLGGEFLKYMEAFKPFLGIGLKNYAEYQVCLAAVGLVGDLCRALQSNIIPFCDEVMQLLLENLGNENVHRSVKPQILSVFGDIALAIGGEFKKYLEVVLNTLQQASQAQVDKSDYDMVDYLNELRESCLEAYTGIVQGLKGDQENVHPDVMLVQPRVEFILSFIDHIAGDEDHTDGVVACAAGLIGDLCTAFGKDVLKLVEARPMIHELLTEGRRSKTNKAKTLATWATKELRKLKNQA
pERK, sequence (P02544 whole entry partner): as the sequence (P02544 whole entry partner) above
Method: (§2) Alkaline phosphatase (AP; 2 units; Roche, Mannheim, Germany) or axoplasm from injured nerve (100 micrograms) was then added for an additional 30 minutes. Complexes were purified over Nickel-NTA-Agarose followed by Western blot analysis for pERK. Alkaline phosphatase activity was verified with the synthetic substrate p-nitrophenyl phosphate (pNPP, Catalog # S0942, Sigma) dissolved in 0.1 molar glycine buffer (0.1 molar glycine, 1 millimolar MgCl2, 1 millimolar ZnCl2; pH 10.4) for a stock solution of 1 mg/ml. […] The yellow hydrolysis product was quantified spectrophotometrically at 405 nm.

[6] = tested on: alkaline phosphatase; details: identical concentrations of vimentin
Method: as §2

[7] = target: importin-beta (Homo sapiens, UniProt Q14974)
importin-beta (Homo sapiens, UniProt Q14974), sequence (Q14974 whole entry): as the sequence (Q14974 whole entry partner) above
importin-beta (Homo sapiens, UniProt Q14974), sequence (P02544 whole entry partner): as the sequence (P02544 whole entry partner) above
Method: GST alone was used as a negative control.
as §1

C[C@@H]1C[C@@H]([C@H](O)CC2CC(=O)NC(=O)C2)C(=O)[C@@H](C)C1 [CHX, cycloheximide]
formation of radioactive importin-beta protein [1]: not formed

CCCC[C@@H](C=O)NC(=O)[C@H](CC(C)C)NC(=O)OCc1ccccc1 [calpeptin]
lower molecular mass bands of vimentin and peripherin [2]: disappeared

EGTA
interaction of GST-pERK with vimentin in axoplasm [3]: blocked

actinomycin D [ActD]
formation of radioactive importin-beta protein [1]: merely reduced

vimentin
vimentin binding to pERK2 [4]: calcium dependent | calcium dependence of protection of pERK2 from dephosphorylation ([5]; 2 micrograms vimentin, varied calcium): calcium dependent manner | protection of pERK2 from the phosphatases ([5]; three-fold to six-fold molar ratio to pERK, alkaline phosphatase or axoplasm): almost complete protection | hydrolysis of p-nitrophenyl phosphate by alkaline phosphatase [6]: no effect | effect of changing calcium concentrations on the vimentin-importin-beta interaction [7]: little or no effect | pull-down with GST-importin-beta ([7]; did not precipitate with GST alone): readily pulled down
